From patent US10106627B2, “Process for the preparation of polymeric biosurfactants” (priority 2014, dated 2018)

Assays:
[1] = Lipid peroxidation assay (malondialdehyde); assay type: biochemical; details: cell free
Method: (§1) The antioxidant activity of Microsan from Microbacterium sp. strain BS-2 and Brevisan from Brevibacillus sp. strain BS-207 in cell free system was measured by its inhibitory activity on the generation of DPPH free radicals, superoxide anions (O^2−), lipid peroxidation and erythrocyte hemolysis. The DPPH free radical scavenging assay was performed using 2,2-diphenyl-1-picrylhydrazyl (DPPH) free radical scavenging method [Ara. N. and Hasan, N. (2009) Res. J. Med. Medical Sci. 4, 107-110]. Different concentrations of Microsan and Brevisan were mixed individually with 150 μl of 160 μM methanolic solution of DPPH and incubated at 35° C. for 30 min in dark. The effective concentration (EC50) was calculated by measuring the absorbance of the samples at 517 nm. The superoxide anion scavenging was measured using phenazine methosulfate-nicotinamide adenine dinucleotide (PMS/NADH) method as previously described [Liu, F., Ooi, V. E. and Chang, S. T. (1997) Life Sci. 60, 763-771]. The lipid peroxidation assay was performed using the previously described method [Zhang, Q., Yu, P., Li, Z., Zhang, H., Xu, Z. and Li, P. (2003) J. Appl. Phycol. 15, 305-310] which is based on measuring the lipid peroxide decomposed product malondialdehyde (MDA). […] Samples were incubated at 37° C. for 30 min and the absorbance was measured at 540 nm. […]

erythrocytes = assay: Erythrocyte hemolysis assay (H2O2); assay type: cell-based; details: human erythrocytes, H2O2, 37° C., 30 min
Method: as §1

[2] = tested on: intracellular reactive oxygen species (ROS) in RAW 264.7 macrophages; assay: LPS-induced intracellular ROS (DCFH-DA) in RAW 264.7 macrophages; assay type: cell-based, mouse; details: 20 μg ml^−1; LPS 100 ng/ml 24 h; LPS alone 78.97%
Method: The inhibition of intracellular reactive oxygen species (ROS) by Brevisan, Microsan and M-EPS-Au-NP in RAW 264.7 macrophages was measured using the oxygen free radical acceptor 2,7,-dichlorofluorescein diacetate (DCFH-DA) [Wang, H., and Joseph J. A. (1999) Free. […] The RAW-264.7 macrophages (2×10^6 cells/well in 24-well plate) were treated with Brevisan, Microsan and M-EPS-Au-NP at various concentrations and then stimulated with 100 ng/ml LPS for 24 h using N-acetylcysteine (NAC, 10 mM) as a ROS inhibitor. The DCF formed by intracellular ROS was measured at 485 nm excitation and 520 nm emission wavelengths using a Hitachi spectrofluorimeter. The experiments were run in triplicates and reported as the percentage of intracellular ROS formed.

[3] = tested on: C3 complement component in RAW 264.7 macrophages; assay: LPS-induced C3 complement component production ELISA in RAW 264.7 macrophages; assay type: cell-based, mouse; details: 1, 10, 20 and 50 μg/ml; LPS 100 ng ml^−1 24 h
Method: The effect of Brevisan, Microsan and M-EPS-Au-NP on C3 complement component was measured using ELISA kits (Antibodies, Atlanta, USA). RAW 264.7 cells were treated with Brevisan, Microsan and M-EPS-Au-NP at 1, 10, 20 and 50 μg/ml, respectively, and then stimulated with 100 ng ml^−1 of LPS. After incubating for 24 h, 50 μl of supernatant was collected and added to each well in an antibody coated 96-well plate. After I h, the wells were washed with PBS and incubated with 100 μl of horse radish peroxidase (HRP)-conjugate for 1 h at 37° C. and then incubated with 50 μl of O-phenylenediamine (0.2% w/v in 0.017 M citrate phosphate buffer, pH 6) and 50 μl of 0.015% hydrogen peroxide for 15 min and the reaction was stopped by adding 50 μl of 12.5% sulphuric acid and the optical density was measured at 450 nm using Biotek EIA Reader (Biotek Instruments, Inc., VT, USA). The results shown are the average of three independent experiments. Further, the hemolytic activity of the secreted C3 was measured as described earlier [Gasque, P., Julen, N., Ischenko, A. M., Picot, C., Mauger, C., Chauzy, C., Ripoche, J. and Fontaine, M. (1992) J. Immunol. 149, 1381-1389]. […] Then 1.5 ml of PBS was added, centrifuged at 10,000 rpm for 5 min and the hemoglobin released present in the supernatant was quantified by measuring the absorbance at 415 nm. […]

[4] = Surface tension, Wilhelmy plate method; assay type: physicochemical; details: from 72
Method: The bacterial strains producing biosurfactants were isolated from the petroleum-contaminated soil sample collected from Mupkal, Nizamabad, Andhra Pradesh, India (latitude 18.90° N and longitude 78.36° E). The soil sample was enriched by placing 1.0 g of soil sample in 100 ml of mineral salts medium supplemented with N-hexadecane (1%, v/v) as a sole carbon source for three weeks. The enriched sample was serially diluted and then plated on the mineral salts agar plates overlaid with N-hexadecane which acted as a sole carbon source. The colonies that appeared on the plates upon incubation at 37° C. for 72 h were purified for 2-3 times on nutrient agar plates. The isolated pure microorganisms were cultured in liquid mineral salts medium at 37° C. for 72 h. The cells were separated by centrifugation and the cell-free supernatant was measured for the reduction in surface tension values by Wilhelmy plate method using a Du-Nouy K100MK2 Processor Tensiometer (Krüss, Hamburg, Germany). The concentration series was generated automatically with a computer-controlled Dosimat (Metrohm AG, Switzerland). […] The critical micelle concentration (CMC) was measured by plotting the concentration of surfactant as a function of surface tension, and the CMC was taken as the point where the slope of the curve abruptly changed. […]

β-D-glucuronyl-(1-2)-D-mannosyl-(1-4)-D-glucose [Microsan]
EC50 lipid peroxidation inhibition [1]: 165.94 µg/mL
EC50 erythrocyte hemolysis inhibition (erythrocytes): 139.28 µg/mL
LPS-induced ROS levels after treatment [2]: 55.71%
inhibition of C3 complement component production [3]: did not inhibit
surface tension of water reduced to [4]: 31.2 mN m^−1
